In patent publication US5521170A, “Benzamide derivatives and pharmaceutical composition comprising the same” (Fujisawa Pharmaceutical Co., Ltd., priority 1993, dated 1996) one finds IC50 data, which are given here for 8 compounds.

Assay [1] deals with T1, Vasopressin 1 (Vl) receptor (Rattus norvegicus, UniProt P30560).
T1 construct: The rat liver was dissected and homogenized; from tissue; host or cells: rat liver membranes
The assay can be described thus: Vasopressin 1 (Vl) receptor binding. As to conditions: rat liver membrane; 0.5 nM ^3H-vasopressin; 60 minutes at 25° C.; pH 7.4. As for the experimental part: Vasopressin 1 (Vl) receptor binding
The rat liver was dissected and homogenized in 10 volume of ice cold 250 mM sucrose buffer containing 25 mM Tris-HCl (pH 7.4), 5 mM MgCl2 and 0.1 mM phenylmethylsulfonyl fluoride (PMSF). The homogenate was centrifuged at 1000 xg for 10 minutes. The supernatant fraction was separated and centrifuged at 45,000 xg for 30 minutes. The remaining pellet was resuspended in 10 volume of ice cold 100 mM Tris-HCl (pH 7.4) buffer (containing 5 mM MgCl2, 0.1% bovine serum albumin and 0.1 mM PMSF), and centrifuged at 45,000 xg for 30 minutes again. The final pellet was resuspended in 100 mM Tris-HCl buffer. The resulting membrane preparation was used immediately for the binding assay.
Competition assays were conducted at equilibrium (60 minutes at 25° C.) by using 0.5 nM ^3 H-vasopressin ([phenylalanyl-3,4,5-^3 H]-vasopression; 40-87 Ci/mmol; New England Nuclear) in 100 mM Tris-HCl (pH 7.4) buffer. Nonspecific binding was determined by using 1 μM [d(CH2)5, Tyr^2 (Me), Arg^8 ]-vasopressin (Peptide institute, Japan). After incubation, reaction was terminated by adding 5 ml of ice-cold 100 mM Tris-HCl (pH 7.4) buffer, and then filtered rapidly through Whatman glass filter (GF/C). […] The glass filter was mixed with liquid scintilation cocktail, and radioactivity was counted in a liquid scintilation counter (TRI-CARB 4530, Packard). […]

In assay [2] the target is T2, Vasopressin 2 (V2) receptor (Rattus norvegicus, UniProt Q00788).
T2 construct: The medullopapillary region of male rat kidey was dissected; from tissue; host or cells: male rat kidney medullopapillary membranes
T2 sequence (Q00788 whole entry): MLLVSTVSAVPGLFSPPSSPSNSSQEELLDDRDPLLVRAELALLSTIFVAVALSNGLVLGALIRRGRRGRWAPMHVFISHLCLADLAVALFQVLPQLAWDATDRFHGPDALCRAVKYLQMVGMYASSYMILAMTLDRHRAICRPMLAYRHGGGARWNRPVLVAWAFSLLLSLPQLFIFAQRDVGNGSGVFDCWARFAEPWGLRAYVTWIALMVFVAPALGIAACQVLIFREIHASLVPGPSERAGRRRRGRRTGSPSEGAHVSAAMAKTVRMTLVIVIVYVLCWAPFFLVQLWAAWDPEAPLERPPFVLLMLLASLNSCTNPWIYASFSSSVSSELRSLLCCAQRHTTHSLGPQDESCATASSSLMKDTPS
The assay can be described thus: Vasopressin 2 (V2) receptor binding. The note with it: male rat kidney medullopapillary membrane; 0.5 nM ^3H-vasopressin; 2 hours at 25° C.; pH 7.4. As for the experimental part: Vasopressin 2 (V2) receptor binding
The medullopapillary region of male rat kidey was dissected and homogenized in 10 volume of ice cold 250 mM sucrose buffer containing 25 mM Tris-HCl (pH 7.4), 5 mM MgCl2 and 0.1 mM phenylmethylsulfonyl fluoride (PMSF). The homogenate was centrifuged at 500 xg for 5 minutes. The supernatant fraction was separated and centrifuged at 45,000 xg for 30 minutes. The remaining pellet was resuspended in 10 volume of ice cold 100 mM Tris-HCl (pH 7.4) buffer (containing 5 mM MgCl2, 0.1% bovine serum albumin and 0.1 mM PMSF), and centrifuged at 45,000 xg for 30 minutes again. The final pellet was resuspended in 100 mM Tris-HCl buffer. The resulting membrane preparation was used immediately for the binding assay.
Competition assays were conducted at equilibrium (2 hours at. 25° C.) by using 0.5 nM ^3 H-vasopression ([phenylalanyl-3,4,5-3H]-vasopression; 40-87 Ci/mmol; New England Nuclear) in 100 mM Tris-HCl (pH 7.4) buffer. Nonspecific binding was determined by using 1 μM [d(CH2)5, D-Ile^2 Ile^4 Arg8]-vasopressin (Peninsula Laboratories USA). After incubation, reaction was terminated by adding 5 ml of ice-cold 100 mM Tris-HCl (pH 7.4) buffer, and then filtered rapidly through Whatman glass filter (GF/C). The filter was washed 2 times with the same buffer (5 ml). The glass filter was mixed with liquid scintilation cocktail, and radioactivity was counted in a liquid scintilation counter (TRI-CARB 4530, Packard). Competition activity of the test compound was represented by IC50 values.

By IC50 is commonly meant the point on the concentration scale where inhibition reaches its midpoint.

T1 sequence (P30560 whole entry): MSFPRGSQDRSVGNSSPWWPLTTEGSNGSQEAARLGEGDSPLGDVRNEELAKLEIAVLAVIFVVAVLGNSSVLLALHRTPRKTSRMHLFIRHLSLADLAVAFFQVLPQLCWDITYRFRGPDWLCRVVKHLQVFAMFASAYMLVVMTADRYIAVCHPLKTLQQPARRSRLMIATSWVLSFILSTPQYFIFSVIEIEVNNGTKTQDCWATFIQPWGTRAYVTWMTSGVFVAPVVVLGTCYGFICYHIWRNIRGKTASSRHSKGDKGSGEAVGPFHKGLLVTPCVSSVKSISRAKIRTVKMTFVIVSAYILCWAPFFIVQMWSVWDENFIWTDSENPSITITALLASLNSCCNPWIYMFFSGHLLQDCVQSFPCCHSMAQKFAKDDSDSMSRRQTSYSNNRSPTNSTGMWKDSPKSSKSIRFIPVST

In the case of `Cc1ccc(-c2ccccc2C(=O)Nc2ccc(C(=O)N3CCCCc4ccccc43)cc2)cc1` [2-2), 1-{4-[2-(4-Methylphenyl)benzoylamino]benzoyl}-2,3,4,5-tetrahydro-1H-benzazepine], the 50% inhibitory concentration (IC50) in assay [1] was determined as 3.9 nM.
With `Cc1ccc(-c2ccccc2C(=O)Nc2ccc(C(=O)N3CC(=O)Nc4ccccc43)cc2)cc1` [2-4), 1-{4-[2-(4-Methylphenyl)benzoylamino]benzoyl}-1,2,3,4-tetrahydroquinoxalin-3-one], in assay [2], the IC50 came out at 3 nM.
Regarding `Cc1ccccc1-c1ccccc1C(=O)Nc1ccc(C(=O)N2CCCC(N(C)C)c3ccccc32)cc1` (centres unmarked) [2-21), 5-Dimethylamino-1-{4-[2-(2-methylphenyl)benzoylamino]benzoyl}-2,3,4,5-tetrahydro-1H-benzazepine], the 50% inhibitory concentration (IC50) in assay [1] turned out to be 4.4 nM.
In assay [2], `Cc1ccc(-c2ccccc2C(=O)Nc2ccc(C(=O)N3CCC(=O)N(CC(=O)N4CCN(C)CC4)c4ccccc43)cc2)c(C)c1` [16-3), 5-{4-[2-(2,4-Dimethylphenyl)benzoylamino]benzoyl}-1-[(4-methyl-1-piperazinyl)carbonylmethyl]-1,3,4,5-tetrahydro-1,5-benzodiazepin-2 (2H)-one] came in with a half-inhibitory concentration (IC50) of 2.3 nM.
`Cc1ccc(-c2ccccc2C(=O)Nc2ccc(C(=O)N3CCC(=O)N(CC(=O)N4CCN(C)CC4)c4cc(Cl)ccc43)cc2)cc1` [16-9), 8-Chloro-5-{4-[2-(4-methylphenyl)benzoylamino]benzoyl}-1-[(4-methyl-1-piperazinyl)carbonylmethyl]-1,3,4,5-tetrahydro-1,5-benzodiazepin-2(2H)-one] gave an IC50 in assay [2] of 3.3 nM.
On the same count and under the same terms, as for `Cc1ccc(-c2ccccc2C(=O)Nc2ccc(C(=O)N3CCC(=O)N(CC(=O)N4CCN(C)CC4)c4cc(C)ccc43)cc2)cc1` [16-14), 8-Methyl-5-{4-[2-(4-methylphenyl)benzoylamino]benzoyl}-1-[(4-methyl-1-piperazinyl)carbonylmethyl]1,3,4,5-tetrahydro-1,5-benzodiazepin-2(2H)-one], the figure is 2.7 nM; as for `Cc1ccc(-c2ccccc2C(=O)Nc2ccc(C(=O)N3CCCC(CC(=O)N4CCN(C)CC4)c4ccccc43)cc2)cc1` (centres unmarked) [16-69), 1-{4-[2-(4-Methylphenyl)benzoylamino]benzoyl}-5-(4-methyl-1-piperazinylcarbonyl)methyl-2,3,4,5-tetrahydro-1H-1-benzazepine], 5.1 nM; as for `Cc1ccc(-c2ccccc2C(=O)Nc2ccc(C(=O)N3CCC(=O)N(CC(=O)N4CCN(C)CC4)c4ccccc43)cc2)cc1` [Example 15, 5-{4-[2-(4-methylphenyl)benzoylamino]benzoyl}-1-[(4-methyl-1-piperazinyl)carbonylmethyl]-1,3,4,5-tetrahydro-1,5-benzodiazepin-2(2H)-one], 1.8 nM.
